Tested on in one series: not listed separately
Kind of series: Pharmacokinetic property (t1/2) in rat. The format is ADME, organism-based. As to conditions: in vivo.
Molecule `COc1ccc(-c2cc(=O)n(C/C=C/c3ccc(Cl)cc3)nc2-c2ccc(OC)cc2)cc1` gave a half-life of 4.9 h.

Tested on in the next series: not listed separately
Put plainly: Pharmacokinetic property (Cmax) in rat. The class given is ADME, organism-based. As to conditions: in vivo.
In the case of `COc1ccc(-c2cc(=O)n(C/C=C/c3ccc(Cl)cc3)nc2-c2ccc(OC)cc2)cc1`, the Cmax is 316 ng/mL.

Tested on in a further series: not listed separately
Put plainly: Pharmacokinetic property (Tmax) in rat. The class given is ADME, organism-based. Particulars: in vivo.
In the case of `COc1ccc(-c2cc(=O)n(C/C=C/c3ccc(Cl)cc3)nc2-c2ccc(OC)cc2)cc1`, the Tmax was 7 h.

The species entered for another series is Rattus norvegicus. Kind of series: Pharmacokinetic property (AUC) in rat. The class given is ADME, organism-based. Particulars: in vivo.
`COc1ccc(-c2cc(=O)n(C/C=C/c3ccc(Cl)cc3)nc2-c2ccc(OC)cc2)cc1` gave an AUC of 3900 ng·h/mL.

The test system of a further series is HL-60. Kind of series: Inhibitory concentration against interleukin-1 beta production in HL-60 cells stimulated with lipopolysaccharide (LPS). As to conditions: Homo sapiens. The class given is functional, cell-based.
`COc1ccc(-c2cc(=O)n(C/C=C/c3ccc(F)cc3)nc2-c2ccc(OC)cc2)cc1` came in with an IC50 of 170 nM.
`COc1ccc(-c2cc(=O)n(C3CC3)nc2-c2ccc(OC)cc2)cc1` showed an IC50 of 7980 nM.
Still for that read-out and setting: as for `COc1ccc(-c2cc(=O)n(Cc3c(Cl)cc(Cl)cc3Cl)nc2-c2ccc(OC)cc2)cc1`, the figure is 9400 nM.
`COc1ccc(-c2cc(=O)n(C(C)C)nc2-c2ccc(OC)cc2)cc1`: the IC50 came to 1320 nM.
Turning to `COc1ccc(-c2cc(=O)n(Cc3ccncc3)nc2-c2ccc(OC)cc2)cc1`, the IC50 came out at 520 nM.
In the case of `COc1ccc(-c2cc(=O)n(C/C=C/c3ccc(Cl)cc3Cl)nc2-c2ccc(OC)cc2)cc1`, the half-maximal inhibitory concentration (IC50) amounted to 270 nM.
The same measure, in the same setting: the value for `C=CCn1nc(-c2ccc(OC)cc2)c(-c2ccc(OC)cc2)cc1=O` was more than 100000 nM; that for `COc1ccc(-c2cc(=O)n(Cc3ccc(F)cc3)nc2-c2ccc(OC)cc2)cc1` was 150 nM; that for `COc1ccc(-c2cc(=O)n(Cc3ccccn3)nc2-c2ccc(OC)cc2)cc1` was 1480 nM.
In turn, `COc1ccc(-c2cc(=O)n(C/C=C/c3ccc(Cl)cc3)nc2-c2ccc(OC)cc2)cc1` registered an IC50 of 100 nM.
On the same count and under the same terms, the value for `COc1ccc(-c2cc(=O)n(CC3CC3)nc2-c2ccc(OC)cc2)cc1` was 1800 nM.
With `COc1ccc(-c2cc(=O)n(Cc3ccccc3)nc2-c2ccc(OC)cc2)cc1`, the IC50 was 260 nM.
Same read-out and setting: the value for `COc1ccc(-c2cc(O)nnc2-c2ccc(OC)cc2)cc1` was 31600 nM; that for `COc1ccc(-c2cc(=O)n(Cc3ccc(Cl)cc3)nc2-c2ccc(OC)cc2)cc1` was 530 nM.
Still for that read-out and setting: the value for `COc1ccc(-c2cc(=O)n(Cc3ccc(Cl)c(Cl)c3)nc2-c2ccc(OC)cc2)cc1` was 210 nM; that for `COc1ccc(-c2cc(=O)n(C/C=C/c3ccc(F)cc3F)nc2-c2ccc(OC)cc2)cc1` was 100 nM.
On the same count and under the same terms, the value for `COc1ccc(-c2cc(=O)n(Cc3c(Cl)cccc3Cl)nc2-c2ccc(OC)cc2)cc1` was 3160 nM; that for `COc1ccc(-c2cc(=O)n(CC3CCCC3)nc2-c2ccc(OC)cc2)cc1` was 110 nM.
Regarding `COc1ccc(-c2cc(=O)n(CC(C)C)nc2-c2ccc(OC)cc2)cc1`, the IC50 is more than 100000 nM.
Still for that read-out and setting: as for `COc1ccc(-c2cc(=O)n(Cc3ccc(F)cc3F)nc2-c2ccc(OC)cc2)cc1`, the figure is 180 nM.
Same read-out and setting: as for `CCn1nc(-c2ccc(OC)cc2)c(-c2ccc(OC)cc2)cc1=O`, the figure is 610 nM; as for `COc1ccc(-c2cc(=O)n(C3CCCC3)nc2-c2ccc(OC)cc2)cc1`, 510 nM; as for `COc1ccc(-c2cc(=O)n(C/C=C/c3ccccc3)nc2-c2ccc(OC)cc2)cc1`, 620 nM.
On the same count and under the same terms, the value for `COc1ccc(-c2cc(=O)n(C)nc2-c2ccc(OC)cc2)cc1` was 1130 nM; that for `COc1ccc(-c2cc(=O)n(Cc3ccc(F)c(F)c3)nc2-c2ccc(OC)cc2)cc1` was 540 nM.
In turn, `COc1ccc(-c2cc(=O)n(Cc3cccnc3)nc2-c2ccc(OC)cc2)cc1` registered an IC50 of 430 nM.
The molecule `COc1ccc(-c2cc(=O)n(Cc3ccc(Cl)cc3Cl)nc2-c2ccc(OC)cc2)cc1` returned an IC50 of 1100 nM.

Source of the values: ChEMBL document CHEMBL1134422, “Synthesis and bioactivities of novel 5,6-bis(4-methoxyphenyl)-2H-pyridazin-3-one derivatives: inhibitors of interleukin-1 beta (IL-1beta) production” (Bioorg Med Chem Lett, 2001).
